Common to all, as to test: MIC susceptibility profiling, efflux platform
What all share (assay type): cell-based, Escherichia coli

One assay concerns EKO-35 araC::macAB. The settings on record: for Fold change of MICs: EKO-35 araC::macAB compared to EKO-35; for MIC: Escherichia coli, read-out: Minimum Inhibitory Concentration, EKO-35 araC::macAB. The procedure, abridged:
(§1)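 Growth inhibition was scored by OD600, with readings taken before incubation subtracted from those after. Cells were grown in MHB II at 37 °C for 18 h with aeration, against duplicate 2-fold compound series and DMSO-only wells. Inoculum: PBS suspension at OD600 ~1.0 diluted 1/2000.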

The subject of assay [1] is EKO-35 araC::mexCD (MexCD from P. aeruginosa). The settings on record: for Fold change of MICs: EKO-35 araC::mexCD compared to EKO-35; for MIC: read-out: Minimum Inhibitory Concentration, EKO-35 araC::mexCD. Summed up:
as §1

A further assay deals with EKO-35 araC::acrEF. The settings on record: for Fold change of MICs: EKO-35 araC::acrEF compared to EKO-35; for MIC: Escherichia coli, read-out: Minimum Inhibitory Concentration, EKO-35 araC::acrEF. The procedure, abridged:
as §1

The subject of the next assay is EKO-35 araC::acrD. The settings on record: for Fold change of MICs: EKO-35 araC::acrD compared to EKO-35; for MIC: Escherichia coli, read-out: Minimum Inhibitory Concentration, EKO-35 araC::acrD. Summed up:
as §1

For the next assay, the system named is EKO-35 araC::emrKY. The settings on record: for Fold change of MICs: EKO-35 araC::emrKY compared to EKO-35; for MIC: Escherichia coli, read-out: Minimum Inhibitory Concentration, EKO-35 araC::emrKY. The procedure, abridged: as §1
The next assay concerns EKO-35 araC::emrAB. Particulars: for Fold change of MICs: EKO-35 araC::emrAB compared to EKO-35; for MIC: Escherichia coli, read-out: Minimum Inhibitory Concentration, EKO-35 araC::emrAB. Summed up: as §1
The test system of a further assay is EKO-35 araC::acrB. The settings on record: for Fold change of MICs: EKO-35 araC::acrB compared to EKO-35; for MIC: Escherichia coli, read-out: Minimum Inhibitory Concentration, EKO-35 araC::acrB. The procedure, abridged: as §1
The next assay relates to EKO-35 araC::acrBD408A. Particulars: for Fold change of MICs: EKO-35 araC::acrBD408A compared to EKO-35; for MIC: Escherichia coli, read-out: Minimum Inhibitory Concentration, EKO-35 araC::acrBD408A. The procedure, abridged:
as §1

[2] abbreviates: Table 13B, non-porinated, technical duplicate.
[3] abbreviates: Table 13A, non-porinated, technical duplicate.

SMILES strings stand for the structures.

As to `NC[C@H]1O[C@H](O[C@H]2[C@H](O)[C@@H](O[C@H]3O[C@H](CO)[C@@H](O)[C@H](N)[C@H]3O)[C@H](N)C[C@@H]2N)[C@H](O)[C@@H](O)[C@@H]1O` [kanamycin], the “Fold change of MICs” value (in the assay with EKO-35 araC::macAB; in assay [1]; with EKO-35 araC::acrEF; in the assay with EKO-35 araC::acrD; in the assay on EKO-35 araC::emrKY; in the assay on EKO-35 araC::emrAB) was 1 fold in each case. Besides, the “Fold change of MICs” value with EKO-35 araC::acrB and in the assay on EKO-35 araC::acrBD408A was 1 fold throughout. For the same compound, the MIC (in assay [1] (setting [2]); with EKO-35 araC::emrKY (setting [2]); with EKO-35 araC::acrBD408A (setting [2])) was 1.56 µg/mL throughout.

With `CN(C)c1ccc(O)c2c1C[C@H]1C[C@H]3[C@H](N(C)C)C(O)=C(C(N)=O)C(=O)[C@@]3(O)C(O)=C1C2=O` [minocycline], the “Fold change of MICs” value in the assay with EKO-35 araC::macAB is reported as 1 fold; in assay [1], 1 fold; with EKO-35 araC::acrEF, 2 fold; in the assay on EKO-35 araC::acrD, 2 fold; in the assay with EKO-35 araC::emrKY, 1 fold; in the assay with EKO-35 araC::emrAB, 1 fold. Further, the “Fold change of MICs” value is reported as 8 fold with EKO-35 araC::acrB and 1 fold with EKO-35 araC::acrBD408A. For the same compound, the MIC turned out to be 0.049 µg/mL with EKO-35 araC::macAB (setting [2]); 0.049 µg/mL in assay [1] (setting [2]); 0.098 µg/mL with EKO-35 araC::acrEF (setting [3]); 0.098 µg/mL in the assay on EKO-35 araC::acrD (setting [3]); 0.049 µg/mL in the assay with EKO-35 araC::emrKY (setting [2]); 0.049 µg/mL in the assay on EKO-35 araC::emrAB (setting [2]). Further, the results for the MIC in the assay on EKO-35 araC::acrB (setting [3]) and in the assay with EKO-35 araC::acrBD408A (setting [2]) were 0.391 µg/mL and 0.049 µg/mL, respectively.

`CCn1cc(C(=O)O)c(=O)c2ccc(C)nc21` [nalidixic acid]: the “Fold change of MICs” value with EKO-35 araC::macAB is given as 1 fold; in assay [1], 2 fold; in the assay on EKO-35 araC::acrEF, 4 fold; in the assay with EKO-35 araC::acrD, 2 fold; with EKO-35 araC::emrKY, 1 fold; in the assay with EKO-35 araC::emrAB it was 8 fold. In addition, the “Fold change of MICs” value is on record as 8 fold in the assay with EKO-35 araC::acrB and 1 fold with EKO-35 araC::acrBD408A. Also, the MIC in the assay on EKO-35 araC::macAB (setting [2]) stood at 1.25 µg/mL; in assay [1] (setting [2]) it was 2.5 µg/mL; in the assay on EKO-35 araC::acrD (setting [3]), 2.5 µg/mL; in the assay with EKO-35 araC::emrKY (setting [2]), 1.25 µg/mL; with EKO-35 araC::emrAB (setting [2]), 10 µg/mL; with EKO-35 araC::acrB (setting [3]), 10 µg/mL. In the assay with EKO-35 araC::acrBD408A (setting [2]), the MIC came to 1.25 µg/mL.

With `CCn1cc(C(=O)O)c(=O)c2cc(F)c(N3CCNCC3)cc21` [norfloxacin], the “Fold change of MICs” value was determined as 1 fold in the assay on EKO-35 araC::macAB; 2 fold in assay [1]; 4 fold in the assay with EKO-35 araC::acrEF; 1 fold with EKO-35 araC::acrD; 1 fold with EKO-35 araC::emrAB; 4 fold in the assay on EKO-35 araC::acrB. Moreover, the “Fold change of MICs” value with EKO-35 araC::acrBD408A is recorded as 1 fold. For the same compound, the MIC amounted to 0.02 µg/mL with EKO-35 araC::macAB (setting [2]); 0.039 µg/mL in assay [1] (setting [2]); 0.02 µg/mL in the assay on EKO-35 araC::acrD (setting [3]); 0.01 µg/mL in the assay on EKO-35 araC::emrKY (setting [2]); 0.02 µg/mL in the assay on EKO-35 araC::emrAB (setting [2]); 0.02 µg/mL in the assay with EKO-35 araC::acrBD408A (setting [2]).

Consider `COc1ccc(C[C@H](N)C(=O)N[C@H]2[C@@H](O)[C@H](n3cnc4c(N(C)C)ncnc43)O[C@@H]2CO)cc1` [puromycin], for which the “Fold change of MICs” value in the assay with EKO-35 araC::macAB came out at 1 fold; in assay [1] it was 4 fold; in the assay on EKO-35 araC::acrEF it was 4 fold; with EKO-35 araC::acrD it was 1 fold; in the assay with EKO-35 araC::emrKY, 1 fold; in the assay with EKO-35 araC::emrAB, 1 fold. Moreover, the “Fold change of MICs” value is reported as 64 fold in the assay on EKO-35 araC::acrB and 1 fold with EKO-35 araC::acrBD408A. Besides, the MIC in the assay on EKO-35 araC::macAB (setting [2]) is 1.56 µg/mL; in assay [1] (setting [2]), 6.25 µg/mL; in the assay on EKO-35 araC::acrEF (setting [3]) it was 6.25 µg/mL; with EKO-35 araC::acrD (setting [3]) it was 1.56 µg/mL; with EKO-35 araC::emrKY (setting [2]), 1.56 µg/mL; in the assay on EKO-35 araC::emrAB (setting [2]), 1.56 µg/mL. The MIC is 100 µg/mL in the assay on EKO-35 araC::acrB (setting [3]) and 1.56 µg/mL in the assay with EKO-35 araC::acrBD408A (setting [2]).

As to `CO[C@H]1/C=C/O[C@@]2(C)Oc3c(C)c(O)c4c(O)c(c(/C=N/N5CCN(C)CC5)c(O)c4c3C2=O)NC(=O)/C(C)=C\C=C\[C@H](C)[C@H](O)[C@@H](C)[C@@H](O)[C@@H](C)[C@H](OC(C)=O)[C@@H]1C` [rifampicin], the MIC in the assay with EKO-35 araC::macAB (setting [2]) came out at 6.25 µg/mL; in assay [1] (setting [2]) it was 3.12 µg/mL; in the assay on EKO-35 araC::acrEF (setting [3]), 6.25 µg/mL; in the assay on EKO-35 araC::acrD (setting [3]), 6.25 µg/mL; in the assay on EKO-35 araC::emrKY (setting [2]), 6.25 µg/mL; with EKO-35 araC::emrAB (setting [2]), 6.25 µg/mL. Moreover, the MIC with EKO-35 araC::acrB (setting [3]) turned out to be 6.25 µg/mL; in the assay with EKO-35 araC::acrBD408A (setting [2]), 3.12 µg/mL.

As to `C[C@H](CCC(=O)NCCS(=O)(=O)[O-])[C@H]1CC[C@H]2[C@@H]3CC[C@@H]4C[C@H](O)CC[C@]4(C)[C@H]3C[C@H](O)[C@]12C.[Na+]` [sodium taurodeoxycholate], the “Fold change of MICs” value in the assay with EKO-35 araC::macAB turned out to be 1 fold; in assay [1], 2 fold; with EKO-35 araC::acrEF, 2 fold; in the assay on EKO-35 araC::acrD, 2 fold; in the assay with EKO-35 araC::emrKY, 1 fold; with EKO-35 araC::emrAB, 2 fold. For the same compound, the “Fold change of MICs” value in the assay with EKO-35 araC::acrB and with EKO-35 araC::acrBD408A was 2 fold each time. In the assay with EKO-35 araC::macAB (setting [2]), the “Minimum Inhibitory Concentration, EKO-35 araC::macAB” value was 250 µg/mL. The “Minimum Inhibitory Concentration, EKO-35 araC::mexCD” value in assay [1] (setting [2]) was 1000 µg/mL. The “Minimum Inhibitory Concentration, EKO-35 araC::acrEF” value with EKO-35 araC::acrEF (setting [3]) came to 1000 µg/mL. Further, in the assay with EKO-35 araC::acrD (setting [3]), the “Minimum Inhibitory Concentration, EKO-35 araC::acrD” value was 1000 µg/mL. Further, in the assay on EKO-35 araC::emrKY (setting [2]), the “Minimum Inhibitory Concentration, EKO-35 araC::emrKY” value is 500 µg/mL. Moreover, the “Minimum Inhibitory Concentration, EKO-35 araC::emrAB” value with EKO-35 araC::emrAB (setting [2]) was 1000 µg/mL. In addition, the “Minimum Inhibitory Concentration, EKO-35 araC::acrB” value in the assay with EKO-35 araC::acrB (setting [3]) came to 1000 µg/mL. Besides, the “Minimum Inhibitory Concentration, EKO-35 araC::acrBD408A” value with EKO-35 araC::acrBD408A (setting [2]) worked out at 1000 µg/mL.

For `CN(C)[C@@H]1C(O)=C(C(N)=O)C(=O)[C@@]2(O)C(O)=C3C(=O)c4c(O)cccc4[C@@](C)(O)[C@H]3C[C@@H]12` [tetracycline], the “Fold change of MICs” value (in the assay on EKO-35 araC::macAB; in assay [1]; in the assay on EKO-35 araC::acrEF; in the assay with EKO-35 araC::acrD; with EKO-35 araC::emrKY; in the assay on EKO-35 araC::emrAB) was 1 fold throughout. Also, the “Fold change of MICs” value in the assay with EKO-35 araC::acrB was determined as 4 fold; with EKO-35 araC::acrBD408A it was 1 fold. In addition, the MIC (in the assay with EKO-35 araC::macAB (setting [2]); in assay [1] (setting [2]); in the assay on EKO-35 araC::acrEF (setting [3]); in the assay with EKO-35 araC::acrD (setting [3]); in the assay on EKO-35 araC::emrKY (setting [2]); in the assay with EKO-35 araC::emrAB (setting [2])) was 0.195 µg/mL each time. In the assay on EKO-35 araC::acrBD408A (setting [2]), the MIC came to 0.195 µg/mL.

Turning to `COc1cc(Cc2cnc(N)nc2N)cc(OC)c1OC` [trimethoprim], the “Fold change of MICs” value with EKO-35 araC::macAB is on record as 1 fold; in assay [1], 2 fold; in the assay with EKO-35 araC::acrEF it was 4 fold; with EKO-35 araC::acrD it was 2 fold; in the assay with EKO-35 araC::emrKY, 1 fold; in the assay with EKO-35 araC::emrAB it was 1 fold. The “Fold change of MICs” value in the assay on EKO-35 araC::acrB was determined as 8 fold; with EKO-35 araC::acrBD408A it was 0 fold. The MIC came out at 0.391 µg/mL in assay [1] (setting [2]), 0.781 µg/mL in the assay with EKO-35 araC::acrEF (setting [3]), 1.56 µg/mL with EKO-35 araC::acrB (setting [3]) and 0.098 µg/mL in the assay on EKO-35 araC::acrBD408A (setting [2]).

(Values after patent US20230407243A1, “GENETIC PLATFORM TO INVESTIGATE THE FUNCTIONS OF BACTERIAL DRUG EFFLUX PUMPS” (priority 2022, published 2023).)
